Data: paper PMC5522071, “Preclinical development of G1T38: A novel, potent and selective inhibitor of cyclin dependent kinases 4/6 for use as an oral antineoplastic in patients with CDK4/6 sensitive tumors” (Oncotarget, 2017)

Experiments:
in vivo = conditions: C57BL/6, mouse, po
ER+ MCF7 xenograft = experiment: MCF-7 breast cancer xenograft model; format: in vivo, mice; conditions: for tumor growth inhibition (TGI): after 27 days of treatment
Description: Tumors were measured every 3 to 4 days during treatment for up to 20 days post-treatment. […] South Texas Accelerated Research Therapeutics (START; San Antonio, Texas) evaluated the antitumor activity of G1T38 in a START Cell-Based Xenograft (START-CBX) tumor model, MCF-7, representing human breast cancer. Data collected from this efficacy study included animal weights, observations, and tumor dimensions. This information was used to determine agent tolerability based on weight change and gross physiologic changes, and anticancer activity based on tumor growth inhibition or regression. Study endpoint was Day 60. MCF-7 cells were harvested from culture and injected into immune-deficient mice and the study initiated at a mean tumor volume of approximately 150-250 mm^3. […] Tumor growth inhibition (%TGI) was calculated using the following equation: %TGI=(1-(((TVtmtfinal-TVtmtinitial))/((AVERAGE(TVctlfinal))-(AVERAGE(TVctlinital)))))*100.

[1] = 28-day repeat-dose GLP toxicity study; format: in vivo; conditions: rat
[2] = Cellular potency compared with palbociclib; format: cell-based
[3] = test system: RNA polymerase II (RPB1) CTD (SER2) phosphorylation in HS68 cells; experiment: Western blot for Rpb1 CTD; format: cell-based; conditions: immunoblot, 3-1000 nM, 24 hours
CDK2/Cyclin E = CDK2/Cyclin E (Homo sapiens, UniProt P24941); conditions: read-out: IC50 CDK2/Cyclin E, Mean; 12-point dose response, singlicate, at Km for ATP
Description: The assays were completed using microfluidic kinase detection technology (Caliper Assay Platform). The compounds were tested in 12-point dose response format in singlicate at the Km for ATP. Phosphoacceptor substrate peptide concentration used was 1 μM and Staurosporine was used as the reference compound for all assays.

[4] = test system: CDK4/6-independent cell lines; experiment: Cell proliferation, CellTiter-Glo, statement for the group; format: cell-based; conditions: read-out: inhibition of proliferation in CDK4/6-independent cell lines
Description: To assess the capacity of G1T38 to inhibit proliferation of tumor cell lines, a broad panel of CDK4/6 dependent and independent lines was evaluated using CellTiter Glo (Table 2).
SupT1, Daudi, MCF7, ZR-75-1, A2058, WM2664, and H69 cells were seeded at 1000 cells per well; MV-4-11 and BV173 cells were plated at 4000 cells per well; Tom-1 cells were plated at 8,000 cells per well; NALM-1 cells were plated at 20,000 cells per well in Costar 3903 96 well plates. After 24 hours, plates were dosed with G1T38 at a nine-point dose concentration from 10 μM to 1 nM. Cell viability was determined after four or six days using the CellTiter-Glo® assay (Promega; Madison, WI) following manufacturer's recommendations. Plates were processed on BioTek (Winooski, VT) Synergy2 multi-mode plate reader and data analyzed using GraphPad (San Diego, CA) Prism 5 statistical software.

[5] = test system: myeloid progenitors (Mac1+ Gr1+); experiment: EdU incorporation in bone marrow; conditions: any treatment cohort (10, 50, 100 mg/kg), 7 days, 12 hours post-treatment
CDK5/p25 = target: T1, CDK5/p25 (Homo sapiens, UniProt Q00535); format: biochemical; conditions: 12-point dose response, singlicate, at Km for ATP
T1 construct: purchased Nanosyn, Inc. (contract assay)
T1 sequence (Q00535 whole entry): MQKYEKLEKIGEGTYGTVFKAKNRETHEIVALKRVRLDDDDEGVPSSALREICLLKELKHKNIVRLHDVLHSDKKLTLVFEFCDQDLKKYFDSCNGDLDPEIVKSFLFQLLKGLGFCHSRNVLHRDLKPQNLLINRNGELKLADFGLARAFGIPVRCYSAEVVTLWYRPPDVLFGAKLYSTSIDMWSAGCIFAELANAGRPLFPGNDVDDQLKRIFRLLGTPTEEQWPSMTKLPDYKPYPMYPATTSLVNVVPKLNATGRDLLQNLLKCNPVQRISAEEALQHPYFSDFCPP
T1 sequence (Q15078 99-307 partner limits assumed): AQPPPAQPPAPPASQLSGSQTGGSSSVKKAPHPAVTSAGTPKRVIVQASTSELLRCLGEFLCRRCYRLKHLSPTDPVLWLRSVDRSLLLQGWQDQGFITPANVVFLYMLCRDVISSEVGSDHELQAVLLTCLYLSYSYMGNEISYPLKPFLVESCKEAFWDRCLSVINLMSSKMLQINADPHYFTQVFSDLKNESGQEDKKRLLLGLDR

CDK9/Cyclin T = target: T2, CDK9/Cyclin T (Homo sapiens, UniProt P50750); format: biochemical; conditions: 12-point dose response, singlicate, at Km for ATP
T2 construct: purchased Nanosyn, Inc. (contract assay)
T2 sequence (P50750 whole entry): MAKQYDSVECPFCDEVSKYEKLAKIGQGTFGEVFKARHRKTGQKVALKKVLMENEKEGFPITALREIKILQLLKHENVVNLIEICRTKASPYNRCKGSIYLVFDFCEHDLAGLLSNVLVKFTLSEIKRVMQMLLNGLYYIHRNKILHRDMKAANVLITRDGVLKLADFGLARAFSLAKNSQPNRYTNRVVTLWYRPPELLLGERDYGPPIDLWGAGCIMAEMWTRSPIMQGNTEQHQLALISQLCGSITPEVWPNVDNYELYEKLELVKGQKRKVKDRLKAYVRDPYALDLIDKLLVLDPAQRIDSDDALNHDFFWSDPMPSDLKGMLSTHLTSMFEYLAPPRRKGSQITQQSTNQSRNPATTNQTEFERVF
T2 sequence (O60563 whole entry partner): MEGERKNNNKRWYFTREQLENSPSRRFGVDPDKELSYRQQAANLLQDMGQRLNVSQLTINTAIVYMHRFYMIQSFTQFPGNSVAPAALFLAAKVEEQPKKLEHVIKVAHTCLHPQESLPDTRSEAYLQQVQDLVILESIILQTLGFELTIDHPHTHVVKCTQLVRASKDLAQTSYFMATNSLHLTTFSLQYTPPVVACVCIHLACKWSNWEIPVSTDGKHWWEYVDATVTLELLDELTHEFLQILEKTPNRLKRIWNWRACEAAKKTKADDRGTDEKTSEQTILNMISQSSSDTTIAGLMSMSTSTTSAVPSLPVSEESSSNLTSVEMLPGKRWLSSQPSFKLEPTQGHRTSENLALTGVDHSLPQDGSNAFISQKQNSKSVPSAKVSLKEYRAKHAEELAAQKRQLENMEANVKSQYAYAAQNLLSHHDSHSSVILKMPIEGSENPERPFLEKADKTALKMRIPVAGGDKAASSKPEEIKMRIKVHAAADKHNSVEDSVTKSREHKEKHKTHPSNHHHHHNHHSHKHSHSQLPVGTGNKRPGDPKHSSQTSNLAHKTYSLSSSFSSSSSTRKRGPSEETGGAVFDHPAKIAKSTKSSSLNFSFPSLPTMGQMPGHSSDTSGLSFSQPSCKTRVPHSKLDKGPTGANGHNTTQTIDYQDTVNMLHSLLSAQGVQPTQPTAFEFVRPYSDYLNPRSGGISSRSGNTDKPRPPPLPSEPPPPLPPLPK

[6] = test system: MMTV-Neu GEMM (Her2/Neu) tumors; experiment: Her2Neu breast cancer GEMM; format: in vivo, mice; conditions: 100 mg/kg in diet, after 21 days of treatment
Description: After 21 days, tumor progression was calculated using the formula: (21 day volume – initial volume)/ initial volume x 100. […] Yellow bar represents duration of treatment. Statistics were completed using linear regression analysis of time during treatment (28 days). Error bars represent SEM. **p≤0.01.
Female MMTV-NEU mice (Jackson Labs Strain 002376) were used to test the efficacy of G1T38 (100 mpk, medicated diet). Drug was incorporated into diet by Research Diets (New Brunswick, NJ) using the following parameters; 25 gm mouse eating 3.2 gm of food/day. Mice were monitored for tumor development by palpating them weekly as per University of North Carolina at Chapel Hill Lineberger Mouse Phase 1 Unit (MP1U) protocol. At time of treatment, body composition was assessed and weight measurements (in grams) were recorded and used as a measure of gross toxicity. Mice were monitored until euthanized at predetermined humane endpoints per approved University of North Carolina at Chapel Hill IACUC protocols.

[7] = Accumulation potential in plasma, 28-day repeat dose; format: in vivo, beagle dogs; conditions: Dog, 28-day daily oral treatment
Description: Beagle dogs (5/ sex) were dosed once daily for 28 consecutive days via oral gavage. The dose levels were 1, 2.5 and 5 mg/kg/day and administered at a dose volume of 5 mL/kg. Hematology samples (1ml/ time point) were collected in K3EDTA tubes twice pre-test and then on days 7, 14, 21, and 25 during the dosing period and on days 35, and 42 during the recovery period. Complete blood counts were performed and results reported. All studies were conducted utilizing methods and protocols in accordance with IACUC approval at MPI Research (Mattawan, MI).
28-day daily oral treatment
The accumulation ratio (R) was calculated for each animal

CDK1/Cyclin B1 = target: T3, CDK1/Cyclin B1 (Homo sapiens, UniProt P06493); format: biochemical; conditions: 12-point dose response, singlicate, at Km for ATP
T3 construct: purchased Nanosyn, Inc. (contract assay)
T3 sequence (P06493 whole entry): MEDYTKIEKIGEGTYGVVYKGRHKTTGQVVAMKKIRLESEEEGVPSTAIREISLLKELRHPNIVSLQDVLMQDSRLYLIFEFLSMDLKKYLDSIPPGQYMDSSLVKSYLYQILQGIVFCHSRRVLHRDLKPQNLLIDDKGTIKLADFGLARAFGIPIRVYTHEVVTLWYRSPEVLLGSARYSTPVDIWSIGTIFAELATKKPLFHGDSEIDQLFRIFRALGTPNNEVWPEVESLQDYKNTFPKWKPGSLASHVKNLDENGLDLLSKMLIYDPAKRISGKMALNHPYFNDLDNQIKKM
T3 sequence (P14635 whole entry partner): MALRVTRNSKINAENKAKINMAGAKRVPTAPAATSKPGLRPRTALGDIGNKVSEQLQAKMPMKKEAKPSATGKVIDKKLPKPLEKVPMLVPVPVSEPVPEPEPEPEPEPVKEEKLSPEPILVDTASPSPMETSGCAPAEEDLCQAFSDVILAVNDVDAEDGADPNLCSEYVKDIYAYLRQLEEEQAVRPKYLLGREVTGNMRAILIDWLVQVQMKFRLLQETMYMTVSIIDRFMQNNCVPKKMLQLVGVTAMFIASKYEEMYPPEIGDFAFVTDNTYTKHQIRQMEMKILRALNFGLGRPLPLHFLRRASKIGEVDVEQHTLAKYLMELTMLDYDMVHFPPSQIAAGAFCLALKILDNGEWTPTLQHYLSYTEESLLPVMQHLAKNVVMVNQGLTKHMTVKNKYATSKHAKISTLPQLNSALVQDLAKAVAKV

Structure (SMILES): CC(C)N1CCN(c2ccc(Nc3ncc4cc5n(c4n3)C3(CCCCC3)CNC5=O)nc2)CC1.Cl.Cl [G1T38, 2′-((5-(4-isopropylpiperazin-1-yl)pyridin-2-yl)amino)-7′, 8′dihydro-6′Hspiro[cyclohexane1,9′ pyrazino[1′,2′:1,5]pyrrolo[2,3-d]pyrimidin]-6′-one di-hydrochloride]
- concentration at 24 h (in vivo): ~22 nM
- tumor growth inhibition (TGI) (ER+ MCF7 xenograft; 10 mg/kg once daily oral): approximately 12%
- tumor response, combination with fulvestrant (ER+ MCF7 xenograft; 50 mg/kg G1T38 + 5 mg fulvestrant, 28 days): near complete, sustained tumor regression
- tumor response, combination with tamoxifen (ER+ MCF7 xenograft; 50 mg/kg G1T38 + 20 mg/kg tamoxifen, 28 days): near complete, sustained tumor regression
- efficacy compared with palbociclib (ER+ MCF7 xenograft; 50 mg/kg daily oral, 28 days): significantly more efficacious than palbociclib
- tumor growth inhibition (TGI) (ER+ MCF7 xenograft; 50 mg/kg once daily oral): ~74%
- time to tumor regression (ER+ MCF7 xenograft; 100 mg/kg daily oral): ≤ 10 days
- tumor growth inhibition (TGI) (ER+ MCF7 xenograft; 100 mg/kg once daily oral): ~90%
- efficacy, combination with GDC0941 (ER+ MCF7 xenograft; G1T38 25 or 50 mg/kg + GDC0941 100 mg/kg): greater efficacy than any of the treatments alone
- tumor response, combination with GW5638 (ER+ MCF7 xenograft; G1T38 25 or 50 mg/kg + GW5638 25 mg/kg): sustained tumor regression
- TGI as single agents (GDC0941 study) (ER+ MCF7 xenograft; G1T38 25 or 50 mg/kg alone, GDC0941 100 mg/kg alone): modest TGI
- TGI as single agents (GW5638 study) (ER+ MCF7 xenograft; G1T38 25 or 50 mg/kg alone, GW5638 25 mg/kg alone): modest TGI
- findings on oral administration [1]: reduction of bone marrow cellularity and lymphocyte depletion
- cellular EC50 lower than palbociclib [2]: 2-3 fold
- RPB1 CTD (SER2) phosphorylation (CDK9/cyclin T function) [3]: no loss
- IC50 (CDK2/Cyclin E): 3600 nM
- EC50 [4]: > 2500 nM
- myeloid progenitor proliferation compared to vehicle [5]: no differences
- IC50 (CDK5/p25): 1200 nM
- IC50 (CDK9/Cyclin T): 28 nM
- tumor regression [6]: 38%
- Mean Accumulation Ratio (AUC0-24hr Day 28 ÷ Day 1) ([7]; 1 mg/kg): 1.08
- Mean Accumulation Ratio (AUC0-24hr Day 28 ÷ Day 1) ([7]; 2.5 mg/kg): 1.3
- Mean Accumulation Ratio (AUC0-24hr Day 28 ÷ Day 1) ([7]; 5 mg/kg): 1.14
- IC50 (CDK1/Cyclin B1): 2400 nM
